Assay results: patent US20220411388A1, “SUBSTITUTED IMIDAZOLE CARBOXAMIDES AND THEIR USE IN THE TREATMENT OF MEDICAL DISORDERS” (Bial - R&D Investments, S.A., priority 2019, published 2022)
Converted amounts (≈) assume the structure as drawn.

Legend:
[1] = Compound solubility in water; type: physicochemical
acid ceramidase (hACR) = target: T1, acid ceramidase (hACR) (Homo sapiens, UniProt Q13510); assay: Acid ceramidase inhibition, biochemical fluorescent assay with cell lysates overexpressing acid ceramidase (substrate Rbm14-12); details: cell lysate, 1 hr preincubation at RT, pH 4.5, Rbm14-12 6.3 μM; read-out: IC50 hACR
T1 construct: expressed in transfected cells
T1 sequence (Q13510 22-395): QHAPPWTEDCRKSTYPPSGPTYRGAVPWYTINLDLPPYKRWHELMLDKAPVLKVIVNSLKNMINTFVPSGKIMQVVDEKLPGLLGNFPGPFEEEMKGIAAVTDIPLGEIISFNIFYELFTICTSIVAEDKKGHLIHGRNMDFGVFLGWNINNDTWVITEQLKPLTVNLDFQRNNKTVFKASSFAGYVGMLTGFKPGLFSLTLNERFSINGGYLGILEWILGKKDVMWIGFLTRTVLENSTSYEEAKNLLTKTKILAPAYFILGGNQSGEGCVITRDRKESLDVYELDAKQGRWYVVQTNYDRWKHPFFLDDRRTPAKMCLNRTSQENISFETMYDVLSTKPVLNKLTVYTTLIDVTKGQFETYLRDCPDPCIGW
How it was run: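 Enzyme source was lysate from cells overexpressing acid ceramidase, 10 µg protein per reaction. Compounds were preincubated 1 h at RT in 25 mM NaAc, 100 mM NaCl, pH 4.5.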

| solubility [1] [µg/mL] | IC50 (acid ceramidase (hACR)) [µM] | SMILES |
| --- | --- | --- |
| 17 (≈ 72.3 µM) | < 0.2 | COc1nc(C)cn1C(=O)NCC#CC(C)C [Example 180, 2-Methoxy-4-methyl-N-(4-methylpent-2-yn-1-yl)-1H-imidazole-1-carboxamide] |
| 25 (≈ 79.3 µM) | < 0.2 | COc1nc(C)cn1C(=O)NCC#CCC1(C(F)(F)F)CC1 [Example 182, 2-Methoxy-4-methyl-N-(4-(1-(trifluoromethyl)cyclopropyl)but-2-ynyl)-1H-imidazole-1-carboxamide] |
| 31 (≈ 104 µM) | 0.2 to 1 | Cc1cn(C(=O)NC2CC2)c(OC2CCC(F)(F)CC2)n1 [Example 183, N-Cyclopropyl-2-(4,4-difluorocyclohexyloxy)-4-methyl-1H-imidazole-1-carboxamide] |
| 31 (≈ 93.9 µM) | < 0.2 | COc1nc(Br)cn1C(=O)NCCCC(F)(F)F [Example 184, 4-Bromo-2-methoxy-N-(4,4,4-trifluorobutyl)-1H-imidazole-1-carboxamide] |
| 29 (≈ 94.2 µM) | < 0.2 | COc1nc(Cl)cn1C(=O)NCCC1CCCC1(F)F (stereo not shown) [Example 185, 4-Chloro-N-(2-(2,2-difluorocyclopentyl)ethyl)-2-methoxy-1H-imidazole-1-carboxamide] |
| 36 (≈ 97.6 µM) | 0.2 to 1 | CN1CCC(Oc2nc(Cl)cn2C(=O)NCCCC(F)(F)F)CC1 [Example 188, 4-Chloro-2-((1-methylpiperidin-4-yl)oxy)-N-(4,4,4-trifluorobutyl)-1H-imidazole-1-carboxamide] |
| 26 (≈ 121 µM) | > 1 | COc1nc(Cl)cn1C(=O)NC1CC1 [Example 189, 4-Chloro-N-cyclopropyl-2-methoxy-1H-imidazole-1-carboxamide] |
| 39 (≈ 105 µM) | < 0.2 | Cc1cn(C(=O)NCCc2ccccc2)c(OCCN2CCN(C)CC2)n1 [Example 190, 4-Methyl-2-(2-(4-methylpiperazin-1-yl)ethoxy)-N-phenethyl-1H-imidazole-1-carboxamide] |
| 33 (≈ 81.1 µM) | 0.2 to 1 | O=C(NCCC1CCCC1(F)F)n1cc(Cl)nc1OCCN1CCOCC1 (stereo not shown) [Example 191, 4-Chloro-N-(2-(2,2-difluorocyclopentyl)ethyl)-2-(2-morpholinoethoxy)-1H-imidazole-1-carboxamide] |
| 31 (≈ 84.1 µM) | < 0.2 | Cc1cn(C(=O)NCC#Cc2ccccc2)c(OCCN2CCOCC2)n1 [Example 196, 4-Methyl-2-(2-morpholinoethoxy)-N-(3-phenylprop-2-yn-1-yl)-1H-imidazole-1-carboxamide] |
| 38 (≈ 101 µM) | 0.2 to 1 | Cc1cn(C(=O)NCCCC(F)(F)F)c(OCCN2CCN(C)CC2)n1 [Example 198, 4-Methyl-2-(2-(4-methylpiperazin-1-yl)ethoxy)-N-(4,4,4-trifluorobutyl)-1H-imidazole-1-carboxamide] |
| 49 (≈ 117 µM) | < 0.2 | Cc1cn(C(=O)NCCCC2(C(F)(F)F)CC2)c(OCCN2CCN(C)CC2)n1 [Example 200, 4-Methyl-2-(2-(4-methylpiperazin-1-yl)ethoxy)-N-(3-(1-(trifluoromethyl)cyclopropyl)propyl)-1H-imidazole-1-carboxamide] |

Further lines, the compound ahead of its results:

| SMILES | solubility [1] [µg/mL] | IC50 (acid ceramidase (hACR)) [µM] |
| --- | --- | --- |
| COc1nc(C)cn1C(=O)NCCCn1ccc(C(C)(C)C)n1 [Example 179, N-(3-(3-(tert-Butyl)-1H-pyrazol-1-yl)propyl)-2-methoxy-4-methyl-1H-imidazole-1-carboxamide] | 22 (≈ 68.9 µM) | < 0.2 |
| COc1nc(C)cn1C(=O)NCC#CCc1ccccc1 [Example 181, 2-Methoxy-4-methyl-N-(4-phenylbut-2-yn-1-yl)-1H-imidazole-1-carboxamide] | 22 (≈ 77.6 µM) | < 0.2 |
| CC(C)Oc1nc(Cl)cn1C(=O)NCCCC(F)(F)F [Example 187, 4-Chloro-2-isopropoxy-N-(4,4,4-trifluorobutyl)-1H-imidazole-1-carboxamide] | 29 (≈ 92.4 µM) | 0.2 to 1 |
| COc1nc(-c2cccnc2N2CCN(C)CC2)cn1C(=O)NCC#CC(C)C [Example 194, 2-Methoxy-N-(4-methylpent-2-yn-1-yl)-4-(2-(4-methylpiperazin-1-yl)pyridin-3-yl)-1H-imidazole-1-carboxamide] | 45 (≈ 113 µM) | > 1 |
| COc1nc(-c2cccnc2N2CCN(C)CC2)cn1C(=O)NCCCC1(C(F)(F)F)CC1 [Example 195] | 35 (≈ 75 µM) | > 1 |
| Cc1cn(C(=O)NCC#Cc2ccccc2)c(OCCN2CCN(C)CC2)n1 [Example 197, 4-Methyl-2-(2-(4-methylpiperazin-1-yl)ethoxy)-N-(3-phenylprop-2-yn-1-yl)-1H-imidazole-1-carboxamide] | 38 (≈ 99.6 µM) | < 0.2 |
| Cc1cn(C(=O)NCCOc2ccccc2)c(OCCN2CCN(C)CC2)n1 [Example 199, 4-Methyl-2-(2-(4-methylpiperazin-1-yl)ethoxy)-N-(2-phenoxyethyl)-1H-imidazole-1-carboxamide] | 50 (≈ 129 µM) | < 0.2 |
| Cc1cn(C(=O)NCC#CCc2ccccc2)c(OCCN2CCN(C)CC2)n1 [Example 201, 4-Methyl-2-(2-(4-methylpiperazin-1-yl)ethoxy)-N-(4-phenylbut-2-ynyl)-1H-imidazole-1-carboxamide] | 39 (≈ 98.6 µM) | < 0.2 |
| CN1CCN(CCOc2nc(-c3ccccc3)cn2C(=O)NCC#Cc2ccccc2)CC1 [Example 202] | 7 (≈ 15.8 µM) | < 0.2 |
| Cc1cn(C(=O)NCc2ccc(-c3ccccc3)cc2)c(OCCN2CCN(C)CC2)n1 [Example 203, N-(Biphenyl-4-ylmethyl)-4-methyl-2-(2-(4-methylpiperazin-1-yl)ethoxy)-1H-imidazole-1-carboxamide] | 30 (≈ 69.2 µM) | < 0.2 |
| CN1CCC(c2cn(C(=O)NCCC#Cc3ccccc3)cn2)CC1 [Example 204, 4-(1-Methylpiperidin-4-yl)-N-(4-phenylbut-3-yn-1-yl)-1H-imidazole-1-carboxamide] | 31 (≈ 92.1 µM) | < 0.2 |
